# Assay results published in patent US8580790B2, “(Heterocycle/condensed piperidine)-(piperazinyl)-1-alkanone or (heterocycle/condensed pyrrolidine)-(piperazinyl)-1-alkanone derivatives and use thereof as p75 inhibitors” (Sanofi, priority 2009, dated 2013).
row,melting point [°C],Structure (SMILES)
1,168 to 169,"C[C@@H]1CN(c2ccc(C(F)(F)F)nc2)C[C@H](C)N1CC(=O)N1CCc2nc(-c3ccccc3)sc2C1 [compound 18, 2-[(2S,6R)-2,6-dimethyl-4-(6-trifluoromethylpyridin-3-yl)piperazin-1-yl]-1-(2-phenyl-6,7-dihydro-4H-thiazolo[5,4-c]pyridin-5-yl)ethanone]"
2,215 to 216,"C[C@@H]1CN(c2cncnc2)C[C@H](C)N1CC(=O)N1CCc2nc(-c3ccccc3)sc2C1 [compound 22, 2-((2S,6R)-2,6-dimethyl-4-pyrimidin-5-yl-piperazin-1-yl)-1-(2-phenyl-6,7-dihydro-4H-thiazolo[5,4-c]pyridin-5-yl)ethanone]"
3,191 to 192,"COC(=O)c1ccc(N2CCN(CC(=O)N3CCc4nc(-c5ccccc5)sc4C3)CC2=O)nc1 [compound 25, 6-{2-oxo-4-[2-oxo-2-(2-phenyl-6,7-dihydro-4H-thiazolo[5,4-c]pyridin-5-yl)ethyl]piperazin-1-yl}nicotinic acid methyl ester]"
4,191 to 193,"COc1ccc(-c2nc3c(s2)CN(C(=O)CN2CCN(c4ccc(C(F)(F)F)cn4)C(=O)C2)CC3)cc1 [compound 34, 4-{2-[2-(4-methoxyphenyl)-6,7-dihydro-4H-thiazolo[5,4-c]pyridin-5-yl]-2-oxoethyl}-1-(5-trifluoromethylpyridin-2-yl)piperazin-2-one]"
5,179 to 180,"O=C(CN1CCN(c2ccc(C(F)(F)F)cn2)C(=O)C1)N1CCc2nc(-c3ccsc3)sc2C1 [compound 42, 4-[2-oxo-2-(2-thiophen-3-yl-6,7-dihydro-4H-thiazolo[5,4-c]pyridin-5-yl)ethyl]-1-(5-trifluoromethylpyridin-2-yl)piperazin-2-one]"
6,159 to 160,"C[C@@H]1CN(CC(=O)N2CCc3nc(-c4ccccc4)sc3C2)[C@@H](C)CN1c1ccc(C#N)cn1 [compound 59, 6-{(2R,5S)-2,5-dimethyl-4-[2-oxo-2-(2-phenyl-6,7-dihydro-4H-thiazolo[5,4-c]pyridin-5-yl)ethyl]piperazin-1-yl}nicotinonitrile]"
7,220 to 221,"C[C@@H]1CN(CC(=O)N2CCc3nc(-c4ccccc4)sc3C2)[C@@H](C)CN1c1ccc(C(=O)O)cn1 [compound 63, 6-{(2R,5S)-2,5-dimethyl-4-[2-oxo-2-(2-phenyl-6,7-dihydro-4H-thiazolo[5,4-c]pyridin-5-yl)ethyl]piperazin-1-yl}nicotinic acid]"
8,200 to 201,"O=C(CN1CCN(c2ccc(C(F)(F)F)cn2)C(=O)C1)N1CCc2nn(-c3ccc(C(F)(F)F)cn3)cc2C1 [compound 65, 4-{2-oxo-2-[2-(5-trifluoromethylpyridin-2-yl)-2,4,6,7-tetrahydropyrazolo[4,3-c]pyridin-5-yl]ethyl}-1-(5-trifluoromethylpyridin-2-yl)piperazin-2-one]"
9,198 to 200,"O=C(CN1CCN(c2ccc(C(F)(F)F)cn2)C(=O)C1)N1CCc2nc(-c3ccccc3)[nH]c2C1 [compound 78, 4-[2-oxo-2-(2-phenyl-3,4,6,7-tetrahydroimidazo[4,5-c]pyridin-5-yl)ethyl]-1-(5-trifluoromethylpyridin-2-yl)piperazin-2-one]"
10,140 to 142,"O=C(CN1CCN(c2ccc(C(F)(F)F)cn2)C(=O)C1)N1CCc2sc(-c3ccccc3)nc2C1 [compound 82, 4-[2-oxo-2-(2-phenyl-6,7-dihydro-4H-thiazolo[4,5-c]pyridin-5-yl)ethyl]-1-(5-trifluoromethylpyridin-2-yl)piperazin-2-one]"
11,140 to 142,"O=C(CN1CCN(c2ccc(C(F)(F)F)cn2)C(=O)C1)N1CCc2oc(-c3ccccc3)nc2C1 [compound 83, 4-[2-oxo-2-(2-phenyl-6,7-dihydro-4H-oxazolo[4,5-c]pyridin-5-yl)ethyl]-1-(5-trifluoromethylpyridin-2-yl)piperazin-2-one]"
12,180 to 183,"O=C(CN1CCN(c2ccc(C(F)(F)F)cn2)C(=O)C1)N1CCc2nc(-c3cccnc3)sc2C1 [compound 84, 4-[2-oxo-2-(2-pyridin-3-yl-6,7-dihydro-4H-thiazolo[5,4-c]pyridin-5-yl)ethyl]-1-(5-trifluoromethylpyridin-2-yl)piperazin-2-one]"
13,175,"O=C(CN1CCN(c2ccc(C(F)(F)F)cn2)C(=O)C1)N1CCc2nc(-c3ccccc3)oc2C1 [compound 96, 4-[2-oxo-2-(2-phenyl-6,7-dihydro-4H-oxazolo[5,4-c]pyridin-5-yl)ethyl]-1-(5-trifluoromethylpyridin-2-yl)piperazin-2-one]"

# More lines, now with the values behind:
row,Structure (SMILES),melting point [°C]
1,"C[C@@H]1CN(c2ncc(F)cn2)C[C@H](C)N1CC(=O)N1CCc2nn(-c3ccccc3)cc2C1 [compound 17, 2-[(2S,6R)-4-(5-fluoropyrimidin-2-yl)-2,6-dimethylpiperazin-1-yl]-1-(2-phenyl-2,4,6,7-tetrahydropyrazolo[4,3-c]pyridin-5-yl)ethanone]",174 to 175
2,"C[C@@H]1CN(c2ccc(C(F)(F)F)nc2)C[C@H](C)N1CC(=O)N1CCc2nn(-c3ccccc3)cc2C1 [compound 20, 2-[(2S,6R)-2,6-dimethyl-4-(6-trifluoromethylpyridin-3-yl)piperazin-1-yl]-1-(2-phenyl-2,4,6,7-tetrahydropyrazolo[4,3-c]pyridin-5-yl)ethanone]",174 to 175
3,"C[C@@H]1CN(CC(=O)N2CCc3nn(-c4ccccc4)cc3C2)[C@@H](C)CN1c1ccc(C#N)cn1 [compound 52, 6-{(2R,5S)-2,5-dimethyl-4-[2-oxo-2-(2-phenyl-2,4,6,7-tetrahydropyrazolo[4,3-c]pyridin-5-yl)ethyl]piperazin-1-yl}nicotinonitrile]",156 to 159
4,"C[C@@H]1CN(CC(=O)N2CCc3nn(-c4ccccc4)cc3C2)[C@@H](C)CN1c1ccc(C(=O)O)cn1 [compound 53, 6-{(2R,5S)-2,5-dimethyl-4-[2-oxo-2-(2-phenyl-2,4,6,7-tetrahydropyrazolo[4,3-c]pyridin-5-yl)ethyl]piperazin-1-yl}nicotinic acid]",165 to 167
5,"C[C@@H]1CN(c2ncc(C(=O)O)cn2)C[C@H](C)N1CC(=O)N1CCc2nn(-c3ccccc3)cc2C1 [compound 75, 2-{(3S,5R)-3,5-dimethyl-4-[2-oxo-2-(2-phenyl-2,4,6,7-tetrahydropyrazolo[4,3-c]pyridin-5-yl)ethyl]piperazin-1-yl}pyrimidine-5-carboxylic acid]",94 to 97
6,"C[C@@H]1CN(c2ccc(-c3nnnn3C)cn2)C[C@H](C)N1CC(=O)N1CCc2nn(-c3ccccc3)cc2C1 [compound 86, 2-{(2S,6R)-2,6-dimethyl-4-[5-(1-methyl-1H-tetrazol-5-yl)pyridin-2-yl]piperazin-1-yl}-1-(2-phenyl-2,4,6,7-tetrahydropyrazolo[4,3-c]pyridin-5-yl)ethanone]",198 to 199
7,"C[C@@H]1CN(c2ccc(-c3nnn(C)n3)cn2)C[C@H](C)N1CC(=O)N1CCc2nn(-c3ccccc3)cc2C1 [compound 87, 2-{(2S,6R)-2,6-dimethyl-4-[5-(2-methyl-2H-tetrazol-5-yl)pyridin-2-yl]piperazin-1-yl}-1-(2-phenyl-2,4,6,7-tetrahydropyrazolo[4,3-c]pyridin-5-yl)ethanone]",182 to 183
8,"Cc1nc(-c2ccc(N3C[C@@H](C)N(CC(=O)N4CCc5nn(-c6ccccc6)cc5C4)[C@@H](C)C3)nc2)no1 [compound 89, 2-{(2S,6R)-2,6-dimethyl-4-[5-(5-methyl[1,2,4]oxadiazol-3-yl)-pyridin-2-yl]piperazin-1-yl}-1-(2-phenyl-2,4,6,7-tetrahydropyrazolo[4,3-c]pyridin-5-yl)ethanone]",163 to 164
9,"C[C@@H]1CN(c2ccc(-c3nnco3)cn2)C[C@H](C)N1CC(=O)N1CCc2nn(-c3ccccc3)cc2C1 [compound 90, 2-[(2S,6R)-2,6-dimethyl-4-(5-[1,3,4]oxadiazol-2-ylpyridin-2-yl)piperazin-1-yl]-1-(2-phenyl-2,4,6,7-tetrahydropyrazolo[4,3-c]pyridin-5-yl)ethanone]",189 to 190
10,"Cc1noc(-c2ccc(N3C[C@@H](C)N(CC(=O)N4CCc5nn(-c6ccccc6)cc5C4)[C@@H](C)C3)nc2)n1 [compound 91, 2-{(2S,6R)-2,6-dimethyl-4-[5-(3-methyl-[1,2,4]oxadiazol-5-yl)-pyridin-2-yl]piperazin-1-yl}-1-(2-phenyl-2,4,6,7-tetrahydropyrazolo[4,3-c]pyridin-5-yl)ethanone]",168 to 171
11,"COC(=O)c1ccc(N2C[C@@H](C)N(CC(=O)N3CCc4c(cnn4C(C)(C)C)C3)[C@@H](C)C2)nc1 [compound 92, 6-{(3S,5R)-4-[2-(1-tert-butyl-1,4,6,7-tetrahydropyrazolo[4,3-c]pyridin-5-yl)-2-oxoethyl]-3,5-dimethylpiperazin-1-yl}nicotinic acid methyl ester]",134 to 135
12,"C[C@@H]1CN(c2ccc(C(=O)O)cn2)C[C@H](C)N1CC(=O)N1CCc2c(cnn2C(C)(C)C)C1 [compound 93, 6-{(3S,5R)-4-[2-(1-tert-butyl-1,4,6,7-tetrahydropyrazolo[4,3-c]pyridin-5-yl)-2-oxoethyl]-3,5-dimethylpiperazin-1-yl}nicotinic acid]",150 to 151
13,"C[C@@H]1CN(c2ccc(C(F)(F)F)cn2)C[C@H](C)N1CC(=O)N1CCc2cc(-c3ccccc3)oc2C1 [compound 97, 2-[(2S,6R)-2,6-dimethyl-4-(5-trifluoromethylpyridin-2-yl)piperazin-1-yl]-1-(2-phenyl-4,7-dihydro-5H-furano[2,3-c]pyridin-6-yl)ethanone]",162
14,"CC(C)OC(=O)c1ccc(N2C[C@@H](C)N(CC(=O)N3CCc4nn(-c5ccccc5)cc4C3)[C@@H](C)C2)nc1 [compound 98, 6-{(3S,5R)-3,5-dimethyl-4-[2-oxo-2-(2-phenyl-2,4,6,7-tetrahydropyrazolo[4,3-c]pyridin-5-yl)ethyl]piperazin-1-yl}nicotinic acid isopropyl ester]",135 to 136
15,"C[C@@H]1CN(c2ccc(C(F)(F)F)cn2)C[C@H](C)N1CC(=O)N1CCc2nn(-c3ccc(C(F)(F)F)cn3)cc2C1 [compound 103, 2-[(2S,6R)-2,6-dimethyl-4-(5-trifluoromethylpyridin-2-yl)piperazin-1-yl]-1-[2-(5-trifluoromethylpyridin-2-yl)-2,4,6,7-tetrahydropyrazolo[4,3-c]pyridin-5-yl]ethanone]",190 to 191
